Source: patent publication EP1105395B1, “PHOTOCYCLIZED RAPAMYCINS” (priority 1998, dated 2000)
Values after ≈ are worked out from the molar mass of the structure shown. Like-named read-outs stand apart in the source and are kept apart here.

Columns and labels:
Assay in all cases: Antifungal activity, microtiter broth dilution MIC
Type in all cases: cell-based
Candida zeylanoided = Candida zeylanoided ID 94-15, 35 °C, 24-48 hours
Protocol: (§1) Antifungal activity for the compounds of this invention was established by evaluating a representative compound of this invention (Compound I) against several strains of fungi. Briefly the following procedure was used to evaluate such activity. A 96 U-bottom microtiter plate was filled (50 µl/well) with RPMI 1640. The compounds to be evaluated were placed in appropriate wells, and serial diluted in successive wells to provide 11 dilutions. The concentrations ranged from 64 through 0.06 µg/ml. An adjusted inoculum of fungi (50 µl) was added to each well and the plates were incubated at 35 °C for 24-48 hours. […]

Candida krussii = Candida krussii ID 94-2, 35 °C, 24-48 hours
Protocol: as §1

Candida albicans = settings: 35 °C, 24-48 hours
Protocol: as §1

Aspergillus fumigatus = Aspergillus fumigatus ID ATCC 26933, 35 °C, 24-48 hours
Protocol: as §1

Candida lusitaniae = Candida lusitaniae ID 94-3, 35 °C, 24-48 hours
Protocol: as §1

Cryptococcus neoformans = Cryptococcus neoformans ID ATCC 90112, 35 °C, 24-48 hours
Protocol: as §1

Aspergillus niger = Aspergillus niger ID S-430, 35 °C, 24-48 hours
Protocol: as §1

Candida tropicalis = settings: 35 °C, 24-48 hours
Protocol: as §1

Aspergillus flavus = Aspergillus flavus ID ATCC 12963, 35 °C, 24-48 hours
Protocol: as §1

Candida parapsilosis = settings: 35 °C, 24-48 hours
Protocol: as §1

Candida glabrata = Candida glabrata ID ATCC 90030, 35 °C, 24-48 hours
Protocol: as §1

Candida rugosa = Candida rugosa ID 94-10, 35 °C, 24-48 hours
Protocol: as §1

Saccharomyces cerevisiae = Saccharomyces cerevisiae ID ATCC 2601, 35 °C, 24-48 hours
Protocol: as §1

Candida pseudotropicalis = Candida pseudotropicalis ID ATCC 28838, 35 °C, 24-48 hours
Protocol: as §1

[1] = test system: Filobasidiella neoformans; settings: Filobasidiella neoformans ID ATCC 7472, 35 °C, 24-48 hours
Protocol: as §1

[2] = Candida parapsilosis ID ATCC 90018

SMILES: Clc1ccc(COC(Cn2ccnc2)c2ccc(Cl)cc2Cl)c(Cl)c1 (stereo not drawn) [Miconazole]
- MIC (Candida zeylanoided; read-out: MIC): 0.25 µg/mL (≈ 0.601 µM)
- MIC (Candida krussii; read-out: MIC): 2 µg/mL (≈ 4.81 µM)
- MIC (Candida albicans; Candida albicans, ATCC90028, Candida albicans ID ATCC 90028, read-out: MIC): 0.5 µg/mL (≈ 1.2 µM)
- MIC (Candida albicans; Candida albicans, Candida albicans ID 94-1, read-out: MIC): 8 µg/mL (≈ 19.2 µM)
- MIC (Candida albicans; Candida albicans, Candida albicans ID 1063, read-out: MIC): 1 µg/mL (≈ 2.4 µM)
- MIC (Candida albicans; Candida albicans, Candida albicans ID 1117, read-out: MIC): 1 µg/mL (≈ 2.4 µM)
- MIC (Candida albicans; Candida albicans, Candida albicans ID C-83, read-out: MIC): 8 µg/mL (≈ 19.2 µM)
- MIC (Aspergillus fumigatus; ATCC26933, read-out: MIC): 1 µg/mL (≈ 2.4 µM)
- MIC (Candida lusitaniae; Clavispora lusitaniae, read-out: MIC): ≤ 0.12 µg/mL
- MIC (Cryptococcus neoformans; ATCC90112, read-out: MIC): ≤ 0.12 µg/mL
- MIC (Aspergillus niger; read-out: MIC): 4 µg/mL (≈ 9.61 µM)
- MIC (Candida tropicalis; Candida tropicalis ID 94-13): 4 µg/mL (≈ 9.61 µM)
- MIC (Candida tropicalis; Candida tropicalis ID 94-14, read-out: MIC): 4 µg/mL (≈ 9.61 µM)
- MIC (Aspergillus flavus; ATCC12963, read-out: MIC): 0.5 µg/mL (≈ 1.2 µM)
- MIC (Candida parapsilosis; Lodderomyces parapsilosis, ATCC90018, Candida parapsilosis ID ATCC 90018, read-out: MIC): ≤ 0.12 µg/mL
- MIC (Candida parapsilosis; Lodderomyces parapsilosis, Candida parapsilosis ID 94-8, read-out: MIC): 0.25 µg/mL (≈ 0.601 µM)
- MIC (Candida parapsilosis; Lodderomyces parapsilosis, Candida parapsilosis ID 94-9, read-out: MIC): 0.5 µg/mL (≈ 1.2 µM)
- MIC (Candida glabrata; Nakaseomyces glabratus, ATCC90030, read-out: MIC): ≤ 0.12 µg/mL
- MIC (Candida rugosa; Diutina rugosa, read-out: MIC): ≤ 0.12 µg/mL
- MIC (Saccharomyces cerevisiae; ATCC2601, read-out: MIC): ≤ 0.12 µg/mL
- MIC (Candida pseudotropicalis; Kluyveromyces marxianus, ATCC28838, read-out: MIC): ≤ 0.12 µg/mL
- MIC ([1]; Cryptococcus neoformans, ATCC7472, read-out: MIC): 0.25 µg/mL (≈ 0.601 µM)

SMILES: C[C@@H]1[C@H](O)[C@@H](C)/C=C/C=C/CC/C=C/C=C/C=C/C=C/C(O[C@H]2O[C@H](C)[C@@H](O)[C@H](N)[C@@H]2O)CC2O[C@](O)(CC(O)C(O)CCC(O)CC(O)CC(O)CC(=O)O[C@H]1C)CC(O)C2C(=O)O (stereo partly drawn) [Nystatin]
- MIC (Candida zeylanoided): 1 µg/mL (≈ 1.08 µM)
- MIC (Candida krussii): 2 µg/mL (≈ 2.16 µM)
- MIC (Candida albicans; Candida albicans ID 94-1): 2.0 µg/mL (≈ 2.16 µM)
- MIC (Candida albicans; Candida albicans ID 1063): 2 µg/mL (≈ 2.16 µM)
- MIC (Candida albicans; Candida albicans ID 1117): 1 µg/mL (≈ 1.08 µM)
- MIC (Candida albicans; Candida albicans ID ATCC 90028): 1 µg/mL (≈ 1.08 µM)
- MIC (Candida albicans; Candida albicans ID C-83): 2 µg/mL (≈ 2.16 µM)
- MIC (Aspergillus fumigatus): 1 µg/mL (≈ 1.08 µM)
- MIC (Candida lusitaniae): 1 µg/mL (≈ 1.08 µM)
- MIC (Cryptococcus neoformans): 0.5 µg/mL (≈ 0.54 µM)
- MIC (Aspergillus niger): 4 µg/mL (≈ 4.32 µM)
- MIC (Candida tropicalis; Candida tropicalis ID 94-13): 1 µg/mL (≈ 1.08 µM)
- MIC (Candida tropicalis; Candida tropicalis ID 94-14): 2 µg/mL (≈ 2.16 µM)
- MIC (Aspergillus flavus): ≥16 µg/mL
- MIC (Candida parapsilosis; Candida parapsilosis ID 94-8): 1 µg/mL (≈ 1.08 µM)
- MIC (Candida parapsilosis; Candida parapsilosis ID 94-9): 1 µg/mL (≈ 1.08 µM)
- MIC (Candida parapsilosis; [2]): 1 µg/mL (≈ 1.08 µM)
- MIC (Candida glabrata): 1 µg/mL (≈ 1.08 µM)
- MIC (Candida rugosa): 2 µg/mL (≈ 2.16 µM)
- MIC (Saccharomyces cerevisiae): 2 µg/mL (≈ 2.16 µM)
- MIC (Candida pseudotropicalis): 1 µg/mL (≈ 1.08 µM)
- MIC [1]: 0.5 µg/mL (≈ 0.54 µM)

SMILES: C[C@@H]1[C@H](O)[C@@H](C)/C=C/C=C/C=C/C=C/C=C/C=C/C=C/[C@H](O[C@@H]2O[C@H](C)[C@@H](O)[C@H](N)[C@@H]2O)C[C@@H]2O[C@](O)(C[C@@H](O)C[C@@H](O)[C@H](O)CC[C@@H](O)C[C@@H](O)CC(=O)O[C@H]1C)C[C@H](O)[C@H]2C(=O)O [Amphtericin B]
- MIC (Candida zeylanoided): 0.25 µg/mL (≈ 0.271 µM)
- MIC (Candida krussii): 0.5 µg/mL (≈ 0.541 µM)
- MIC (Candida albicans; Candida albicans ID 94-1): ≤0.12 µg/mL
- MIC (Candida albicans; Candida albicans ID 1063): 0.25 µg/mL (≈ 0.271 µM)
- MIC (Candida albicans; Candida albicans ID 1117): 0.25 µg/mL (≈ 0.271 µM)
- MIC (Candida albicans; Candida albicans ID ATCC 90028): 0.25 µg/mL (≈ 0.271 µM)
- MIC (Candida albicans; Candida albicans ID C-83): 0.25 µg/mL (≈ 0.271 µM)
- MIC (Aspergillus fumigatus): 0.25 µg/mL (≈ 0.271 µM)
- MIC (Candida lusitaniae): ≤0.12 µg/mL
- MIC (Cryptococcus neoformans): ≤0.12 µg/mL
- MIC (Aspergillus niger): 0.25 µg/mL (≈ 0.271 µM)
- MIC (Candida tropicalis; Candida tropicalis ID 94-13): 0.25 µg/mL (≈ 0.271 µM)
- MIC (Candida tropicalis; Candida tropicalis ID 94-14): 0.25 µg/mL (≈ 0.271 µM)
- MIC (Aspergillus flavus): 2 µg/mL (≈ 2.16 µM)
- MIC (Candida parapsilosis; Candida parapsilosis ID 94-8): 0.25 µg/mL (≈ 0.271 µM)
- MIC (Candida parapsilosis; Candida parapsilosis ID 94-9): 0.5 µg/mL (≈ 0.541 µM)
- MIC (Candida parapsilosis; [2]): ≤0.12 µg/mL
- MIC (Candida glabrata): 0.25 µg/mL (≈ 0.271 µM)
- MIC (Candida rugosa): 0.25 µg/mL (≈ 0.271 µM)
- MIC (Saccharomyces cerevisiae): ≤0.12 µg/mL
- MIC (Candida pseudotropicalis): 0.25 µg/mL (≈ 0.271 µM)
- MIC [1]: 0.12 µg/mL (≈ 0.13 µM)
